From ChEMBL document CHEMBL1156131, “Discovery of pyrazol-3-ylamino pyrazines as novel JAK2 inhibitors” (Bioorg Med Chem Lett, 2009) come the findings set out here.

The target in data set [1] is T1, Tyrosine-protein kinase JAK2 (Homo sapiens, UniProt O60674). The data set can be described thus: Inhibition of JAK2 using 2 mM ATP as a substrate.
Data set [2] addresses T1, Tyrosine-protein kinase JAK2. The data set can be described thus: Inhibition of JAK2 using 5 mM ATP as a substrate.
Data set [3] concerns the target T2, Tyrosine-protein kinase JAK3 (Homo sapiens, UniProt P52333).
T2 sequence (P52333 whole entry): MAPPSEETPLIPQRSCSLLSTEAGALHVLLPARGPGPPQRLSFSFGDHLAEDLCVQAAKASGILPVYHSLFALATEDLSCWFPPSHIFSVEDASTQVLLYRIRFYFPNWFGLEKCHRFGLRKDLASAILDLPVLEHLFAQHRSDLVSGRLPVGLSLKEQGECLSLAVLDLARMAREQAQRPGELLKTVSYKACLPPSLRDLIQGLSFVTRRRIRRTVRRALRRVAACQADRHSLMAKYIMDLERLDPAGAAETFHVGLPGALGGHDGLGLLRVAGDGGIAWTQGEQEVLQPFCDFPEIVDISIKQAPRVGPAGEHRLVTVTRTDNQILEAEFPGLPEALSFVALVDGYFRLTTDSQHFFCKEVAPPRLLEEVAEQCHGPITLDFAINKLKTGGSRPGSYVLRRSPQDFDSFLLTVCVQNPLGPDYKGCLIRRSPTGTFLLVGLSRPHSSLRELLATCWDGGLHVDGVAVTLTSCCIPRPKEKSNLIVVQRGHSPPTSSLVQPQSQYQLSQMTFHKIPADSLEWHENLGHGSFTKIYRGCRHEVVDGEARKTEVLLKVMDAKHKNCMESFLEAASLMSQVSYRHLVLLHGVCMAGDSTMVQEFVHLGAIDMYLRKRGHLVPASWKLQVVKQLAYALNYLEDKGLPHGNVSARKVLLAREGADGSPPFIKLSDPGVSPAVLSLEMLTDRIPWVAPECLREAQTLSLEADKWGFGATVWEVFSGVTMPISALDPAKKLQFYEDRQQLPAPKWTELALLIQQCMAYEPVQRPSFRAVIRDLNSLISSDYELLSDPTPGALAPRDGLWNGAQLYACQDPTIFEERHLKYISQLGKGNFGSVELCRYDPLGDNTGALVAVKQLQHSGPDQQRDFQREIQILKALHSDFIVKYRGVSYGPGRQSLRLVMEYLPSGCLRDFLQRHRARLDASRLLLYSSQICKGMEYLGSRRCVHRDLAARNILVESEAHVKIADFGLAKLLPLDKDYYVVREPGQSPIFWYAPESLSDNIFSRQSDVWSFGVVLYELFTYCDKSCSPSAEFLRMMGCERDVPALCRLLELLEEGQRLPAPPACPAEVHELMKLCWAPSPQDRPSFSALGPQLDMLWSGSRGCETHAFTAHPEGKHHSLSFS
Kind of data set: Inhibition of JAK3 using 5 mM ATP as a substrate.

For data set [4], the target named is T1, Tyrosine-protein kinase JAK2. The data set can be described thus: Inhibition of Tel-fused JAK2.
For data set [5], the target named is T3, Tyrosine-protein kinase JAK3 (Homo sapiens) (UniProt P52333).
T3 sequence (whole entry): T2 sequence (P52333 whole entry)
The data set can be described thus: Inhibition of Tel-fused JAK3.

Data set [6] has as its target Cyclin-dependent kinase 2 (Homo sapiens, UniProt P24941). Kind of data set: Inhibition of CDK2.
Data set [7] deals with Aurora kinase B (Homo sapiens, UniProt Q96GD4). The data set can be described thus: Inhibition of Aurora B.
Sequence of Aurora kinase B (Q96GD4 whole entry): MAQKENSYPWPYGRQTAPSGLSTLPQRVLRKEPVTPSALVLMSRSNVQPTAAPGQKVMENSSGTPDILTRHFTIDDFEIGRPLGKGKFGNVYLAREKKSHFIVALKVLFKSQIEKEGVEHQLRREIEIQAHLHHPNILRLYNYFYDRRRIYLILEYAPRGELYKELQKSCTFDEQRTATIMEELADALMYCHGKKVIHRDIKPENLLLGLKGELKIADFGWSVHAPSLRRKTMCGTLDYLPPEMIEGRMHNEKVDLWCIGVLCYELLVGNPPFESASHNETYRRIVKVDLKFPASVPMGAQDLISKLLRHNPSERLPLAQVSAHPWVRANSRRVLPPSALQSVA
Data set [8] addresses High affinity nerve growth factor receptor (Homo sapiens, UniProt P04629). Kind of data set: Inhibition of TRKA.
The nature of data set [9]: Clearance in Wistar rat at 10 mg/kg, po and 3 mg/kg, iv. The class given is ADME, organism-based. The note with it: in vivo.
Data set [10] is described as follows: Volume of distribution at steady state in Wistar rat at 10 mg/kg, po and 3 mg/kg, iv. The note with it: in vivo, read-out: Vdss. It is filed as ADME, organism-based.
The nature of data set [11]: Half life Wistar rat at 10 mg/kg, po and 3 mg/kg, iv. The class given is ADME, organism-based. The note with it: in vivo.
In data set [12] the test system is Mus musculus. The data set can be described thus: Ex vivo inhibition of STAT5 phosphorylation in NCr mouse implanted with Tel-fused JAK expressing mouse BAF3 cells at 5 mg/kg, po after 2 hrs. It is filed as functional. The settings on record: BaF3, 2 h.
For data set [13], the system named is Mus musculus. Kind of data set: Ex vivo inhibition of STAT5 phosphorylation in NCr mouse implanted with Tel-fused JAK expressing mouse BAF3 cells at 10 mg/kg, po after 2 hrs. It is filed as functional. The note with it: BaF3, 2 h.
Data set [14] relates to Mus musculus. The data set can be described thus: Ex vivo inhibition of STAT5 phosphorylation in NCr mouse implanted with Tel-fused JAK expressing mouse BAF3 cells at 25 mg/kg, po after 2 hrs. It is filed as functional. The note with it: BaF3, 2 h.
Data set [15] concerns Mus musculus. The data set can be described thus: Ex vivo inhibition of STAT5 phosphorylation in NCr mouse implanted with Tel-fused JAK expressing mouse BAF3 cells at 25 mg/kg, po after 4 hrs. It is filed as functional. The note with it: BaF3, 4 h.
The nature of data set [16]: Clearance in Beagle dog at 10 mg/kg, po and 3 mg/kg, iv. It is filed as ADME, organism-based, Canis lupus familiaris. The note with it: in vivo.
Data set [17] in a line: Volume of distribution at steady state in Beagle dog at 10 mg/kg, po and 3 mg/kg, iv. The settings on record: in vivo, read-out: Vdss. The class given is ADME, organism-based, Canis lupus familiaris.
The nature of data set [18]: Half life Beagle dog at 10 mg/kg, po and 3 mg/kg, iv. It is filed as ADME, organism-based, Canis lupus familiaris. The settings on record: in vivo.

pIC50: −log10 of the molar value.

T1 sequence (O60674 whole entry): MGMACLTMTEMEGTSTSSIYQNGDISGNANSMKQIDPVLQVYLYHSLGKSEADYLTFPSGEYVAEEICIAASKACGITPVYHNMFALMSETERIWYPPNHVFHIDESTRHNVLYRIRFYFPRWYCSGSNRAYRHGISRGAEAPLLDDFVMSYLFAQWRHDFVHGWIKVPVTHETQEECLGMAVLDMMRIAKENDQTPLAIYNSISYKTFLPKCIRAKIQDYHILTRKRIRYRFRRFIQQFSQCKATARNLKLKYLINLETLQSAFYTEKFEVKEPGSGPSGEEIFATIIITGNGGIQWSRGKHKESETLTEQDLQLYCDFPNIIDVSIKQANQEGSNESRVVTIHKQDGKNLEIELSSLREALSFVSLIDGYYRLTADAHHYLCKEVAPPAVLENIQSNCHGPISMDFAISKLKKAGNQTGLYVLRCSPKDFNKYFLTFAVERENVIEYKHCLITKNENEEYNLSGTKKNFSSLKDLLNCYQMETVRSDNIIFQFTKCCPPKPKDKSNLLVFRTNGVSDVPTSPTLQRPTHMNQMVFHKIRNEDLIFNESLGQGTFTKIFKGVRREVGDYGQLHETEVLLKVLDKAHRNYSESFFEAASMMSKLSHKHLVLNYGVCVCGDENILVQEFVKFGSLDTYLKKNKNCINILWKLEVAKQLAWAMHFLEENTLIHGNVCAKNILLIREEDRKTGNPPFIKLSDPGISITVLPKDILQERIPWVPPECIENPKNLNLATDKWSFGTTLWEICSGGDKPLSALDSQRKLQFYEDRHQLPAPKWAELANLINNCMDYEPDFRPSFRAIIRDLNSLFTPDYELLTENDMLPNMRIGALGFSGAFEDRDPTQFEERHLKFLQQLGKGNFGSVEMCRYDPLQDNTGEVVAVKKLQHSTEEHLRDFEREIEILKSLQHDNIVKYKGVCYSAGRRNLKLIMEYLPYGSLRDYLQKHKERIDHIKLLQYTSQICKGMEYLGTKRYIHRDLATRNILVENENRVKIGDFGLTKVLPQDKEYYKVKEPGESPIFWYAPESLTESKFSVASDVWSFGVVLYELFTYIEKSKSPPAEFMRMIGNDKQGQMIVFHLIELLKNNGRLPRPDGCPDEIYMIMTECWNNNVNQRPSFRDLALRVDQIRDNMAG
Sequence of High affinity nerve growth factor receptor (P04629 whole entry): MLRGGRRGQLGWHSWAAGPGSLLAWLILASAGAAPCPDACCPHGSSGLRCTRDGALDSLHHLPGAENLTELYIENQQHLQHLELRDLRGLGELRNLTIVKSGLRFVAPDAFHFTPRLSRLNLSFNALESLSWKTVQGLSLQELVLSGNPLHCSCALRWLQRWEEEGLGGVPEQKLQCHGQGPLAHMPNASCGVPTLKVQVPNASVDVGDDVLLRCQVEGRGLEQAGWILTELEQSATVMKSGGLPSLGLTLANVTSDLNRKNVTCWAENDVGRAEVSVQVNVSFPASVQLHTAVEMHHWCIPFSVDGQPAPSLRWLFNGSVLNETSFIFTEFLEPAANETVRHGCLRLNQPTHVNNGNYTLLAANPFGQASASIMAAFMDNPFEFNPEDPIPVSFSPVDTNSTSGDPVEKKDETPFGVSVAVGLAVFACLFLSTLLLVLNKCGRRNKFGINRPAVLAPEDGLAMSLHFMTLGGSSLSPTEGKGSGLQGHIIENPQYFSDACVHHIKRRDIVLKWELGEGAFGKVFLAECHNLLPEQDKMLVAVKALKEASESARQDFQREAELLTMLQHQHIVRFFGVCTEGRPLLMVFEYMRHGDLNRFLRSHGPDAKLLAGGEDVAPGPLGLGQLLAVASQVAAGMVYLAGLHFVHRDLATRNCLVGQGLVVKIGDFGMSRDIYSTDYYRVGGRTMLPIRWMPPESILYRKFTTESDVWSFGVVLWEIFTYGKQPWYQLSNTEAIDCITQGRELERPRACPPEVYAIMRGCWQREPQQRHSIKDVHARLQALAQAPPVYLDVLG

`Cc1cc(Nc2nc(O[C@@H](C)c3ccc(F)cn3)c(C#N)nc2C)[nH]n1`: the pIC50 (in general, −log10 of the IC50, conventionally taken in molar units) in [1] was 8.40; in [2] it was 6.85; in [3] it was less than 4.52.
The matching figures for `C[C@H](Nc1nc(Nc2cc(C3CC3)n[nH]2)cnc1C#N)c1ccc(F)cn1`: greater than 8.52, 7.60 and 4.57.
`Cc1cc(Nc2cnc(C#N)c(N[C@@H](C)c3ccc(F)cn3)n2)n[nH]1`: the GI50 (in general, the concentration that inhibits growth by half) was 60 nM in data set [4] and 1100 nM in [5]. The pIC50 was 7.52 in data set [6]; 6.17 in data set [7]; 6.17 in data set [8]; greater than 8.52 in data set [1]; 8.52 in data set [2]; 5.29 in data set [3]. This compound also displayed a clearance in [9] of 25 mL/min/kg. Moreover, in data set [10], the Vd turned out to be 2.2 L/kg. Besides, the half-life (usually how long it takes for the measured level to halve) in [11] was 1.2 h. The inhibition in vivo (as a rule, how much of the control response was suppressed) at 5 mg/kg in data set [12] was greater than 80%. In data set [13], this compound came in with an inhibition in vivo at 10 mg/kg greater than 90%. The inhibition in vivo at 25 mg/kg in data set [14] and in data set [15] was greater than 90% in each case.
For the compound `Cc1cc(Nc2nc(N[C@@H](C)c3ncc(F)cn3)c(C#N)nc2C)n[nH]1`, the GI50 in [4] is 220 nM; in [5] it was 7400 nM. In addition, the negative logarithm of the IC50 (pIC50) in data set [6] was 6.39; in data set [7], 6.07; in [8], 5.83; in data set [1] it was greater than 8.52; in data set [2], 7.06; in [3] it was 4.58. For the same compound, the clearance in data set [9] was 13 mL/min/kg; in data set [16], less than 2 mL/min/kg. Further, the Vd in data set [10] came out at 1.6 L/kg; in [17], 1.1 L/kg. Besides, the half-life was 1.6 h in data set [11] and 7 h in data set [18]. In [12], this compound came in with an inhibition in vivo at 5 mg/kg greater than 80%. This compound came in with an inhibition in vivo at 10 mg/kg in data set [13] greater than 90%. This compound showed an inhibition in vivo at 25 mg/kg in data set [14] greater than 95%.
Consider `Cc1cc(Nc2nc(O[C@H](C)c3ccc(F)cn3)c(C#N)nc2C)[nH]n1`, for which the pIC50 in [1] was 6.97; in data set [2] it was 5.33; in [3], less than 4.52.
`Cc1cc(Nc2nc(N[C@H](C)c3ncc(F)cn3)c(C#N)nc2C)[nH]n1`: the negative logarithm of the IC50 (pIC50) is 7.30 in data set [1], 4.98 in [2] and less than 4.52 in data set [3].
Consider `COc1cc(Nc2cncc(N[C@@H](C)c3ccc(F)cn3)n2)[nH]n1`, for which the results for the pIC50 in data set [1] and in data set [2] were 8.52 and 8.10, respectively.
For `Cc1cc(Nc2cncc(N[C@@H](C)c3ccc(F)cn3)n2)[nH]n1`, the pIC50 in [1] was greater than 8.52; in data set [2], 8.52; in data set [3], 4.93.
`Cc1cc(Nc2nc(N[C@@H](C)c3ccc(F)cn3)c(C#N)nc2C)n[nH]1` yielded a GI50 in data set [4] of 110 nM. The pIC50 is 6.34 in data set [6], greater than 8.52 in data set [1] and 7.96 in [2].
As for `Cc1cc(Nc2nc(N[C@@H](C)c3ccc(F)cn3)cnc2C)[nH]n1`, the pIC50 in data set [1] is greater than 8.52; in [2], 7.74.
In data set [4], `Cc1cc(Nc2cnc(C#N)c(N[C@@H](C)c3ncc(F)cn3)n2)n[nH]1` registered a 50% growth inhibitory concentration (GI50) of 160 nM. In addition, the negative logarithm of the IC50 (pIC50) in data set [6] was 7.30; in data set [1], greater than 8.52; in data set [2] it was 8.22.
For `Cc1cc(Nc2nc(N[C@H](C)c3ccc(F)cn3)c(C#N)nc2C)n[nH]1`, the figures for the pIC50 in data set [1] and in [2] were 7.12 and 6.04, respectively.
Consider `Cc1cc(Nc2nc(NC(C)c3ccc(F)cn3)c(C#N)nc2C)n[nH]1` (stereo unspecified), for which the results for the pIC50 in [1] and in data set [2] were greater than 8.52 and 7.33, respectively.
As to `Cc1cc(Nc2cncc(N[C@@H](C)c3ncc(F)cn3)n2)n[nH]1`, the negative-log IC50 (pIC50) in data set [1] is greater than 8.52; in data set [2], 8.52; in data set [3] it was 4.86.
On to `Cc1cc(Nc2cnc(C#N)c(NC(C)c3ccc(F)cn3)n2)n[nH]1` (stereo unspecified), for which the negative logarithm of the IC50 (pIC50) in data set [1] was greater than 8.52; in data set [2], 8.30; in data set [3] it was 4.89.
Take `CC(C)Oc1cc(Nc2cncc(N[C@@H](C)c3ccc(F)cn3)n2)[nH]n1`: the pIC50 was 8.00 in data set [1] and 6.38 in [2].
